Entries after “also recorded” stand apart in the source; their conditions may differ.
Assays:
[1] = Encapsulation of organic substances in α-D-glucose pentaacetate glass; assay type: physicochemical
Experimental: Excellent recoveries were obtained in the encapsulation of several organic substances in the glasses. Glass discs of α-D-Glucose pentaacetate containing 2% w/w of the materials listed in Table 4 were formed by melting and quenching and then ground. Photochrome II is 5-chloro-1,3-dihydro-1,3,3-trimethyl spiro[2H-indole-2,3′-[3H]-napth[2,1-b] [1,4]-oxazine. The encapsulated materials were extracted by the suitable solvent such as methanol or water.
Pesticide-like Oxadiazon was dissolved easily in the melt of this glass at about 15% w/w without problem.

[2] = Glass transition temperature (Tg) by thermal analysis (DSC); assay type: physicochemical
Excerpt: In general, the tendency to crystallize, from a cooling melt or with reducing solvent, is low. Both devitrification and the fluidity of the melt at temperatures close to Tg, can be controlled by modifiers such as other derivative sugars and certain organic actives. The following two tables, generated as described in the Examples presented below, provide Tg and melting temperature data for a variety of HDCs suitable for use, either alone, or in a composite glass, herein.
Dissolution of synthetic corticosteroid XPDO (described below) into a TOAC melt and quenching to form the vitreous solid dose delivery system was achieved. By looking at the release of MB9 into aqueous solution, these experiments tested the compatibility of the steroid within the glass, subsequent recovery of the steroid and studied the effect that XPDO has on the properties of the delivery system formed looking at the release of MB9 into aqueous solution. TOAC (3.21 g) was pre-melted at 150° C., before being quenched to glass. The glass was finely ground with XPDO (0.15 g) before being remelted. The clear melt was again quenched to yield the composite HDC/active glass. Thermal analysis was carried out on a Rheometric Scientific Differential Scanning Calorimeter (DSC) at a heating rate of 10°/min under a nitrogen atmosphere. The following samples were prepared:
Studies were performed using the synthetic corticosteroid XPDO dissolved in DCM. The solution was spray dried in a Buchi B-191 spray drier, using an inlet temperature of 40° C. […] XPDO was incorporated at 20 wt %. The powder was completely amorphous as confirmed by thermal analysis (Tg=46° C.).

[3] = Controlled release of encapsulated MB9 dye from HDC glass beads/discs; assay type: physicochemical
Experimental: In the following experiments, the delivery system was preformulated, whether as a single material, or as a mixed composition. This was carried out by intimately grinding the component HDCs together, followed by careful, controlled melting in a furnace, between 120-140° C. and with normal atmosphere to form melts. The melts were quenched to glass by pouring over a brass block. This glass was then finely ground.
MB9 dye (1 or 5 wt %) was mixed with the ground glass prior to re-melting at 140° C. The melt was quenched to form small glass beads (2.5 mm diameter) which were used in controlled release experiments.
Controlled release of encapsulated dye was monitored by suspending three such beads in 25 or 50 ml of deionized water or PBS solution at ambient temperatures (27-30° C.) or at 37° C., as indicated. The media were undisturbed, except for periodic stirring and were replaced at set intervals with fresh media (generally at 72 hr intervals). Both single HDC glasses and composite HDC glasses were formed. […] The use of other HDCs as glass modifiers in the composite HDC formulations enable the tailoring of the glasses formed to yield the release characteristics desired.
In FIG. 8, the results were obtained from TOAC glass discs (6 mm×2.5 mm) with MB9 dye evenly dispersed therein at 2 wt %. Release was controlled at 25° C. with gentle stirring and media changes at regular intervals. Note the linear release of MB9 dye over a 55 day period. The results presented in FIG. 8 indicate that a pure HDC vitreous delivery vehicle system gives zero-order release rates of guest substances. The results presented in FIGS. 9-14 show variation on release rates by changing the ratios of different HDCs in the delivery systems, changing the carbohydrate backbone length and by changing the nature of the derivative on the carbohydrate backbone. In each instance it is clear that the HDC delivery systems allow a wide range of release rates that can be tailored to the guest substance and the delivery thereof.

[4] = tested on: African Green monkey kidney-derived cell line Vero; assay: In vitro toxicity of TOAC in Vero cell culture; assay type: cell-based; conditions: saturated solution in 10-fold serial dilution or powder added to medium; week of culture
Experimental: A saturated solution of TOAC in deionised distilled water (0.42 g in 20 mls) was tested for toxicity in vitro using the African Green monkey kidney-derived cell line Vero, in either a 10-fold serial dilution or by adding the TOAC powder directly to the tissue culture medium.

[5] = Resistance of glasses to devitrification on exposure to relative humidity; assay type: physicochemical
Experimental: Glasses were made by evaporating DCM on a hotplate set at 65° C. from a 25% solutions of TOAC (50% solutions often deposited crystals in the pipette tip). Drying was carried out for 2 hr to be certain of complete dryness. Uniform glasses were produced by using an Eppendorf-type pipette to deliver 100 μl to a slide recently placed on the hotplate and then removing about 50 μl by using the clear/expel volume of the pipette.
XPDO was therefore incorporated into a TOAC glass by dissolving both crystalline TOAC and XPDO in DCM and evaporating the solvent at 70° C. on a hotplate. XPDO was used in proportions of 10% and 20% of total solids in the final TOAC glass.
(§1) The resulting glasses were tested for their utility as controlled release matrices in two ways. First, they were assessed for their ability to resist devitrification on exposure to high RH at RT. Second, they were immersed in water or phosphate-buffered saline (PBS) to study their solubility and rate of erosion by surface recrystallization.

[6] = Devitrification / recrystallization of glasses immersed in liquid water; assay type: physicochemical
Experimental: However, when immersed in liquid water, the surface of the glass slowly recrystallized so that microscopic pyramidal crystals of TOAC could be seen under an inverted microscope within 15-30 min of addition of water. Crystallization was slowly progressive and within another few minutes small clusters of the typical needle shaped crystals of XPDO appeared. Since neither the needle shaped XPDO crystals nor the pyramidal TOAC crystals were adherent to the underlying glass, they were washed away readily to reveal a fresh glass surface for further slow dissolution. The complete exclusion of XPDO from the TOAC crystals ensured that this molecule, previously incorporated in the glassy TOAC matrix, was now released into the liquid phase.
as §1
The 10% α-GPAC and 10% TOPR in TOAC glasses and the 50:50 molar ratio TOAC:α-GPAC glass were also immersed in water to examine their rate of devitrification in liquid water rather than humid air.

[7] = Stability, recovery and release of XPDO from HDC glass (HPLC); assay type: physicochemical
Experimental: Release characteristics of the vitreous HDC solid dose delivery systems were studied by monitoring the release of MB9 from TOAC/XPDO glasses as shown in FIG. 15. For analysis of stability of active in the vitreous HDC solid dose delivery systems, XPDO was recovered from the samples by dissolving the glass in acetonitrile and analyzing by HPLC. There was full recovery of the guest substance even after storage at 45° C. for 4 weeks.
For analysis XPDO was extracted from the spray-dried powder by dissolving the powder in acetonitrile and then diluting the acetonitrile with sodium phosphate buffer prior to analysis by HPLC. Samples were set up to test stability of XPDO in the spray dried formulations at 45° C. and stored over saturated Zinc sulphate (RH 80-85%).
For release into sodium phosphate buffer, 0.0868 g of the spray dried powder was shaken in 10 mls of the buffer for 1 minute. The suspension was then filtered through a 0.2 μm filter. […] Bioavailability of the steroid from the delivery system was tested by immersion in an aqueous solution for a short time. Stability of the steroid in the spray-dried formulation was tested at high humidity and 45° C. (both factors are important if the application as an inhalable powder is to be successful). The results indicated a resistance to high humidity, stability in the glass and ready bioavailability in vitro tests.

CC(C)Oc1cc(-n2nc(C(C)(C)C)oc2=O)c(Cl)cc1Cl [Oxadiazon]
amount dissolved in the melt of the glass [1]: about 15 % w/w

CC(=O)OC[C@H](OC(C)=O)[C@@H](OC(C)=O)[C@H](OC(C)=O)[C@@H](COC(C)=O)OC(C)=O [SHAC, sorbitol hexaacetate]
melting point: 100 to 104 °C
Tg/° C. ([2]; single HDC glasses (Table 1)): −6 °C

CC(=O)OCC1OC(OC2OC(COC(C)=O)C(OC(C)=O)C(OC(C)=O)C2OC(C)=O)C(OC(C)=O)C(OC(C)=O)C1OC(C)=O (stereo not drawn) [TOAC, trehalose octaacetate]
period of linear release of MB9 dye ([3]; TOAC glass discs 6 mm×2.5 mm, MB9 2 wt %, PBS, 25° C., FIG. 8): 55 days
MB9 release characteristics ([3]; TOAC glass, MB9 dye): zero-order release characteristics
cell division [4]: normal
toxic effects [4]: No toxic effects were observed
recrystallization of glass on storage ([5]; TOAC glass from DCM on slides, room temperature, 50-60% relative humidity): gradually recrystallized over 1 month
Initial Form ([5]; mixed HDC glasses (Table 6)): Glass
After RH 24 hr ([5]; mixed HDC glasses exposed to high RH (75% to 95%) at RT, 24 hr): Cryst + + + +
devitrification at RH from 75% to 95% ([5]; thin glass films and quenched disks, RT, overnight exposure): very susceptible to devitrification at high RH; also recorded: crystallized at all RHs from 75% to 95%
Tg ([2]; glass quenched from melt, DSC, heating rate 10°/min, nitrogen): Tg = 50.1 °C
Tg/° C. ([2]; single HDC glasses (Table 1)): 50 °C
Tg/° C. ([2]; single and composite HDC glasses, mole ratios of HDCs in glass (Table 2)): 50 °C

CCCC1OC2CC3C4CC(F)C5=CC(=O)CCC5(C)C4(F)C(O)CC3(C)C2(C(=O)CO)O1 (stereo not drawn) [XPDO, 6α,9α-difluoro-11β,21-dihydroxy-16α,17α-propyl methylene dioxy-4-pregnene-3,20-dione]
time to release of guest substance when added to liquid water ([6]; 10% (w/v) guest in HDC glass): 5 to 10 min
time to surface recrystallization after immersion in water ([6]; glass immersed in liquid water): 15 to 30 min
HDC glass stability at high relative humidity ([5]; 10% (w/v) guest in HDC (TOAC) glass, RH up to 95%, room temperature): stable when exposed to relative humidities of up to 95% at room temperature for over a month
change in glass structure such as recrystallization ([5]; guest in TOAC glass from DCM, stored at RH of 75%, 81%, 90% and 95% for 4 weeks): no change in glass structure
degradation on HPLC analysis ([7]; spray dried glass powder, 4 weeks storage at 45° C. and 85% RH): No evidence of any degradation
release into sodium phosphate buffer ([7]; spray dried powder shaken in buffer for 1 minute, filtered, HPLC): effectively being released into aqueous solution
Tg ([2]; spray dried amorphous powder, XPDO incorporated at 20 wt %): 46 °C
